One experiment has as its target COX-1 (Homo sapiens, UniProt P23219). Put plainly: Human COX-1 enzyme activity (COX Inhibitor Screening Assay, prostaglandin EIA). It is filed as biochemical. Also noted: purchased Cayman Chemical. The following applies: test compound at 100 μM. How it is done:
(§1) The human COX-1 and COX-2 enzyme activities and the measurement of the prostaglandin products synthesized were performed using the COX Inhibitor Screening Assay (Cayman Chemical, Ann Arbor, Mich.), which also contained the Prostaglandin Screening EIA Kit, used for prostaglandin quantification). The test compounds were dissolved at 50 times the highest final reaction concentration in DMSO or any other suitable solvent as stock solutions. These stock solutions were then diluted in the same solvent. Eight glass test tubes (13×100 mm) were placed in a 25° C. water bath. To each test tube was added 950 μL of reaction buffer (0.1 M Tris-HCl, pH 8.0, containing 5 mM EDTA, and 2 mM phenol), 10 μL of 100 µM heme solution, and 10 μL (5 units) of either human COX-1 or COX-2 enzyme and the resulting mixture was incubated for 2 minutes. Twenty μL of the solvent was added to one tube (100% initial activity or solvent control) and 20 μL of each dilution of the test compound was added to one tube each. Each tube was vortexed immediately after the addition. The enzyme was incubated with the inhibitor for 20 minutes at 25° C. The enzymatic reaction was then initiated by the addition of 10 μL of freshly prepared 10 mM arachidonic acid (neutralized with KOH), vortexed and then incubated for 2 minutes (or, in some cases as indicated, 30 seconds) at 37° C. The reaction was terminated by the addition of 50 μL of 1 M HCl, vortexed and placed at room temperature. One hundred μL of a saturated stannous chloride solution (50 mg/mL of 0.1 M HCl) was added and the reaction mixture was allowed to stand at room temperature for at least 5 minutes.
(§2) The prostaglandins (PG) produced in the reactions were assayed, after a 2,000-fold dilution, using the Prostaglandin Screening EIA Kit (Cayman Chemical, Ann Arbor, Mich.). The assay contains an antibody with broad specificity for all the prostaglandin families (PGF, PGE, PGD, and thromboxane B-type) synthesized in the COX-1/COX-2 reactions. The synthesized prostaglandin competes with a PG-tagged acetylcholine esterase tracer for binding to the PG antibody. Binding of synthesized PG lowers the colorimetric development of the Ellman's Reagent (computed as %B/B0). The actual amount of synthesized PG was interpolated from a standard curve using known amounts of supplied prostaglandin E2 (PGE2) (PGE2 concentration vs. %B/B0). The data generated were the mean±standard deviation of triplicate wells in the EIA for a single reaction at a given inhibitor concentration. A plot of % of control (i.e., the solvent control without inhibitor) vs. test compound inhibitor concentration for both isoenzymes was used to determine the IC50 's for COX-1 and COX-2 for that test compound, when IC50's were calculated. The % inhibition for COX-1 and COX-2 enzyme activity by the test compounds at the indicated concentrations are given in Table 1.

The target in a further experiment is T1, COX-2 (Homo sapiens, UniProt P35354).
T1 sequence (P35354 18-604): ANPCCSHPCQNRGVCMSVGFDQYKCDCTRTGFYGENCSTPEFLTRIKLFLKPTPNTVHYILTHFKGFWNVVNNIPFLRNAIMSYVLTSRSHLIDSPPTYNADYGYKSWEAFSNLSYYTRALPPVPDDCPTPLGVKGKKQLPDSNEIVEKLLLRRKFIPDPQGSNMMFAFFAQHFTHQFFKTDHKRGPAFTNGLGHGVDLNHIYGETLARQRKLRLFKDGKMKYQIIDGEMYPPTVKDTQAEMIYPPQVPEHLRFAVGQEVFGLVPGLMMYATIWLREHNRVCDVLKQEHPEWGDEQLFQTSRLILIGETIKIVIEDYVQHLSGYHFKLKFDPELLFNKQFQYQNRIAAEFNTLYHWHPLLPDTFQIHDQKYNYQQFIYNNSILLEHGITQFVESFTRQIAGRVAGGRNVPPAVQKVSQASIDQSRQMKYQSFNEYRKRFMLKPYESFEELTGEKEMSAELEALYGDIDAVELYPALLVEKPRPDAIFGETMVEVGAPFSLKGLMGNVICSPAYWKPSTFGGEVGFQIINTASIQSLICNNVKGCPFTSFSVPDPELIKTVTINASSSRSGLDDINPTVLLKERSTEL
The experiment in a line: Human COX-2 enzyme activity (COX Inhibitor Screening Assay, prostaglandin EIA). It counts as biochemical. More on the design: purchased Cayman Chemical. The following applies: test compound at 10 μM. The procedure:
as §1
as §2, with “concentration.” for “concentration. A plot of % of control (i.e., the solvent control without inhibitor) vs. test compound inhibitor concentration for both isoenzymes was used to determine the IC50 's for COX-1 and COX-2 for that test compound, when IC50's were calculated. The % inhibition for COX-1 and COX-2 enzyme activity by the test compounds at the indicated concentrations are given in Table 1.”

COX-1, sequence (P23219 24-599): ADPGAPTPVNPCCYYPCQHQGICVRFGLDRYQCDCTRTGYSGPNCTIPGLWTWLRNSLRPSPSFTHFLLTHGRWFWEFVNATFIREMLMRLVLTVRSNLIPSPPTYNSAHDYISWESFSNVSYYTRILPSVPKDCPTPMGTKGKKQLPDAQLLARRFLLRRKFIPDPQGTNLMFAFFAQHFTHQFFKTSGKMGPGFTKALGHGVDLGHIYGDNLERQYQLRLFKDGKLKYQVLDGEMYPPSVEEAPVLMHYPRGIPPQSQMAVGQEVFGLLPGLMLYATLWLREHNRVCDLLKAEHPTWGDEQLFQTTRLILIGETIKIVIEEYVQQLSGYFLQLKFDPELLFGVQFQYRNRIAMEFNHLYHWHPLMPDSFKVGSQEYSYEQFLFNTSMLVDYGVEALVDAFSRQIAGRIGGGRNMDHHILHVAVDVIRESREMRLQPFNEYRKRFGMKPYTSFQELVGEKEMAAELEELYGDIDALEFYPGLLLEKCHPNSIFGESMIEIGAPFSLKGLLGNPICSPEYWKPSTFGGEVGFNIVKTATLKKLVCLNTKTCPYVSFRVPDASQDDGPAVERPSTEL

With `CS(=O)(=O)c1ccc(-c2cc3c(cc2C=C2CCCC2)OCO3)cc1` [Example 10a, 4-(6-(Cyclopentylidenemethyl)(2H-benzo(3,4-d)1,3-dioxolan-5-yl))-1-(methylsulfonyl)benzene], the “COX-1 Inhibition (% at 100 μM)” value on COX-1 is given as 30%. Besides, on COX-2, the “COX-2 Inhibition (% at 10 μM)” value is 100%.
For `CS(=O)(=O)c1ccc(-c2cc3c(cc2CC2CCCCC2)OCO3)cc1` [Example 1e, 1-(6-(Cyclohexylmethyl)(2-H-benzo(3,4-d)1,3-dioxolen-5-yl))-4-(methylsulfonyl) benzene], in that order: 0% and 100%.
With `CS(=O)(=O)c1ccc(-c2cc3c(cc2Cc2cc(F)cc(F)c2)OCO3)cc1` [Example 15c, 5-(1-(3′,5′-Difluorophenyl)methyl)-1,2-methylenedioxy-4-(4-methylsulfonylphenyl)benzene], at COX-1, the “COX-1 Inhibition (% at 100 μM)” value was 15%. For the same molecule, the “COX-2 Inhibition (% at 10 μM)” value on COX-2 amounted to 90%.
Turning to `CS(=O)(=O)c1ccc(-c2cc3c(cc2CN2CCCCC2=O)OCO3)cc1` [Example 9c], the “COX-1 Inhibition (% at 100 μM)” value on COX-1 came to 70%. The “COX-2 Inhibition (% at 10 μM)” value at COX-2 is on record as 90%.
For `CS(=O)(=O)c1ccc(-c2cc3c(cc2C(=O)c2ccccc2)OCO3)cc1` [Example 3d, 6-(4-(Methylsulfonyl)phenyl)(2H-benzo(d)1,3-dioxolan-5-yl) phenyl ketone], in that order: 0% and 90%.
For `CS(=O)(=O)c1ccc(-c2cc3c(cc2Cc2cccnc2)OCO3)cc1` [Example 6c, 4-(Methylsulfonyl)-1-(6-(3-pyridylmethyl)(2H-benzo(3,4-d)1,3-dioxolan-5-yl))benzene], in that order: 30% and 65%.

Source of the values: patent publication US6825185B2, “Substituted aryl compounds as novel cyclooxygenase-2 selective inhibitors, compositions and methods of use” (NitroMed, Inc., priority 2000, dated 2004).
